Structures are written as SMILES. “And” between values parts separate entries of the source, which are not always exact repeats. Identical values can stand only once.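 48-hour exposure; five concentrations; linearly interpolated endpoints. Abbreviation: GI50, concentration required for 50% inhibition of growth. The concentration for full growth arrest is given as TGI.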 Where only a bound is given, the exact number is not on record here.

The source of these data is PubChem BioAssay (NCI).

Holding throughout (test): NCI anticancer screen, dose series, 48 h
The subject of assay [1] is MALME-3M melanoma.
The subject of assay [2] is CAKI-1 renal.
For assay [3], the system named is SW-620 colon.
Assay [4] relates to TK-10 renal.
Assay [5] relates to OVCAR-4 ovarian.
The subject of assay [6] is 786-0 renal.
For assay [7], the system named is A549 NSCLC.
The test system of assay [8] is SK-MEL-28 melanoma.
The test system of assay [9] is M14 melanoma.

Take `O=c1c2cc(Br)ccc2nc(CCl)n1-c1ccc(O)c([N+](=O)[O-])c1`: the TGI was 33.4 µM in [1]; 49.3 µM in [2]; 35.2 µM in assay [3]; 32.8 µM in assay [4]; 33.4 µM in assay [5]; 31.8 µM in assay [6]. Also, the TGI in assay [7] worked out at 52.3 µM; in assay [8], 32.3 µM; in assay [9], 50.2 µM.

As for `O=C(/C=C/c1ccccc1)CC(=O)CCC(=O)Nc1ccc(Cl)cc1`, the TGI in assay [1], in [2], in assay [3], in assay [4], in assay [5] and in assay [6] was above 100 µM throughout. The TGI in [7] and in assay [9] was above 100 µM each time.

As to `Cc1ccccc1C(=O)N1CCN(C(=O)c2ccccc2C)CC1`, the TGI in [2], in assay [3], in assay [4], in assay [5], in [6] and in assay [7] was above 100 µM in each case. In addition, the TGI in assay [8] and in [9] was above 100 µM throughout.

Take `CCC(=O)Nc1nc2c(ncn2C2OC(COC(=O)CC)C(OC(=O)CC)C2OC(=O)CC)c(=O)[nH]1` (stereo unspecified): the TGI in assay [1], in assay [2], in assay [3], in assay [5], in assay [6] and in assay [7] was above 100 µM throughout. Also, the TGI in [8] and in [9] was above 100 µM throughout.

As to `O=[N+]([O-])c1ccc(-c2ccc(-c3csc(Nc4ccccc4)n3)o2)cc1`, the TGI stood at 32.1 µM in assay [1]; 39.5 µM in [2]; 56.7 µM in [3]; 33.3 µM in [4]; 32 µM in [5]; 30.9 µM in [6]. The values for the TGI in assay [7], in assay [8] and in assay [9] were above 100 µM, 32.2 µM and 38 µM, respectively.

With `COC(=O)C1(C(=O)OC)CC(=O)c2cc3c(cc2-c2c(cc(OC)c(OC)c2OC)C1)OCO3`, the TGI in assay [1], in [2], in assay [3], in assay [4], in assay [6] and in assay [7] was above 211 µM each time. The same compound had a TGI in assay [8] above 211 µM.

As for `CSc1nnc(COc2ccc(Cl)cc2)o1`, the TGI in assay [1], in assay [2], in [3], in [4], in assay [5] and in [6] was above 100 µM each time. The TGI in assay [7], in assay [8] and in assay [9] was above 100 µM in each case.

For `Cc1nc(C(N)=S)sc1C(=O)/C=C/c1c(O)ccc2ccccc12`, the TGI in [1], in assay [2], in [3], in assay [4], in assay [5] and in assay [6] was above 100 µM throughout. The TGI in assay [7], in assay [8] and in [9] was above 100 µM each time.

Regarding `O=C(N/N=C/c1cccc(F)c1)c1ccncc1`, the TGI in assay [1], in assay [3], in [4], in [6], in assay [7] and in assay [8] was above 100 µM in each case. The compound further showed a TGI in assay [9] above 100 µM.

In the case of `Cc1c2ccccc2cc2ccc3oc([N+](=O)[O-])cc3c12`, the TGI in assay [1], in assay [2], in assay [3], in [4], in assay [5] and in [6] was above 100 µM in each case. In addition, the TGI in assay [7] and in assay [9] was above 100 µM in each case.

Turning to `COc1ccc(C(=O)NCCN(C)C)c2nc3ccccc3nc12`, the TGI in assay [1] was 6.8 µM; in assay [2], above 36.2 µM; in assay [3] it was above 30.5 µM; in [4], 76.7 µM; in assay [5] it was 16.8 µM; in [6] it was above 59.9 µM. The TGI in [7] is above 100 µM; in assay [8] it was 16.8 µM; in [9] it was above 34.5 µM.

Regarding `c1ccc(N2N=C(c3ccco3)CC2c2ccco2)cc1` (stereo unspecified), the TGI in [1], in assay [3], in assay [4], in assay [5], in [6] and in [7] was above 100 µM each time. Moreover, the TGI in assay [8] and in assay [9] was above 100 µM in each case.

As for `COc1ccc(CN2CCC/C=C/CC(Cl)(Cl)C2=O)cc1`, the TGI in [1] is 87.7 µM; in assay [2] it was above 100 µM; in assay [3], above 100 µM; in assay [4] it was above 100 µM; in assay [5] it was 98.8 µM; in assay [6], above 100 µM. For the same compound, the TGI in assay [7] is above 100 µM; in [8], above 100 µM; in assay [9] it was 57 µM.

`NC(=S)NN/C=C(\C=Nc1ccccc1)[N+](=O)[O-]`: the TGI in [1], in assay [2], in assay [3], in assay [4], in [5] and in assay [6] was above 100 µM throughout. For the same compound, the TGI in assay [7], in [8] and in [9] was above 100 µM each time.

Consider `COc1ccc(/C(=N\NC(=S)NN)C(c2ccc(OC)cc2)C2C(=O)Oc3ccccc32)cc1` (stereo unspecified), for which the GI50 in assay [1], in [3], in assay [4], in [5], in [6] and in [7] was above 100 µM throughout. In addition, in assay [9], the GI50 is above 100 µM. Besides, the TGI in assay [1], in [3], in [4], in [5], in [6] and in assay [7] was above 100 µM throughout. Moreover, the TGI in [8] and in [9] was above 100 µM each time.

Consider `CC(=O)N1CCC2(c3ccccc3N(C(C)=O)C2c2ccc(O)cc2)C1C(=O)O` (stereo unspecified), for which the TGI in [1], in assay [3], in assay [4], in assay [6], in assay [7] and in [8] was above 100 µM in each case. This compound also displayed a TGI in assay [9] above 100 µM.

As to `CCOC(=O)C(NC(=O)c1nc[nH]c1[N+](=O)[O-])C(C)C` (stereo unspecified), the TGI in assay [1], in assay [2], in [3], in assay [5], in assay [6] and in assay [7] was above 100 µM throughout. In addition, the TGI in [8] and in [9] was above 100 µM throughout.

For `C[N+](C)(C)CC1CCCCC1O` (stereo unspecified), the TGI in [2], in assay [3], in assay [4], in assay [5], in assay [6] and in assay [8] was above 100 µM throughout. The same compound came in with a TGI in assay [9] above 100 µM.

For the compound `CCOC(=O)NC(=O)c1cn(CCN2CCN(C(=O)CCCCCCCCCCC(=O)N3CCN(CCn4cc(C(=O)NC(=O)OCC)c(=O)[nH]c4=O)CC3)CC2)c(=O)[nH]c1=O`, the TGI in assay [1], in assay [2], in [3], in [4], in [5] and in [6] was above 100 µM in each case. Also, the TGI in [7], in assay [8] and in assay [9] was above 100 µM each time.

As to `CSC(=NCCc1c[nH]c2ccccc12)NC#N`, the TGI in assay [3], in [4], in assay [5], in assay [6], in assay [7] and in assay [8] was above 100 µM throughout. The compound also came in with a TGI in [9] above 100 µM.

As to `CC(C)(C)C(=O)[CH-]C(=O)C(C)(C)C.CC(C)(C)C(=O)[CH-]C(=O)C(C)(C)C.CN(C)c1ccc([O-])cc1.CN(C)c1ccc([O-])cc1.[Ti+4]`, the GI50 was above 100 µM in assay [1]; above 100 µM in [2]; above 100 µM in [3]; above 100 µM in [5]; 68.2 µM in [6]; above 100 µM in [7]. Also, the values for the GI50 in assay [8] and in [9] were above 100 µM and 60.8 µM, respectively. Besides, the TGI in assay [1], in assay [2], in assay [3], in assay [5], in assay [6] and in [7] was above 100 µM in each case. The TGI in [8] and in assay [9] was above 100 µM in each case.

On to `O=[N+]([O-])c1ccc(Sc2c3ccccc3nc3cc(Cl)ccc23)cc1`, for which the GI50 in assay [1], in assay [2], in assay [3], in assay [4], in [5] and in assay [6] was above 100 µM each time. The GI50 in assay [7], in assay [8] and in assay [9] was above 100 µM in each case. The TGI in assay [1], in assay [2], in assay [3], in [4], in assay [5] and in [6] was above 100 µM in each case. Further, the TGI in assay [7], in assay [8] and in assay [9] was above 100 µM throughout.

`CN(C)C(=S)/N=c1\ssc(=S)n1Cc1ccncc1`: the TGI is 50.2 µM in assay [1]; 75.6 µM in assay [2]; 48.8 µM in assay [3]; 80.3 µM in assay [4]; 95.2 µM in assay [5]; 66 µM in [6]. Besides, the TGI in assay [7] is above 100 µM; in assay [8] it was above 100 µM; in assay [9] it was 62.9 µM.

With `N/N=C1\C(=O)N(CCc2ccccc2)C(=O)C1C(=O)NCCc1ccccc1` (stereo unspecified), the TGI in assay [1], in assay [2], in assay [3], in assay [4], in [6] and in assay [7] was above 100 µM in each case. The TGI in assay [8] and in [9] was above 100 µM throughout.

For `C=CC(OCC)(OCC)OCC`, the TGI in assay [1] was above 100 µM; in assay [2], above 100 µM; in assay [4], above 100 µM; in [5], above 100 µM; in [6], 58.7 µM; in assay [7], above 100 µM. The TGI in assay [8] and in assay [9] was above 100 µM in each case.

`CCC1=CC2CN(C1)Cc1c([nH]c3ccccc13)[C@@](C(=O)OC)(c1cc3c(cc1OC)N(C)[C@H]1[C@@](O)(C(=O)OC)[C@H](OC(C)=O)[C@]4(CC)C=CCN5CC[C@]31[C@@H]54)C2` (stereo partly specified): the GI50 in [1] was below 0.005 µM; in [2], 7.86 µM and 6.85 µM; in assay [3], below 0.005 µM; in assay [5], 0.0341 µM; in assay [6], 0.0514 µM and 0.0773 µM; in [7], 0.0114 µM and 0.0208 µM. The GI50 in assay [8] was 0.0221 µM; in assay [9], 0.00953 µM and 0.0245 µM. Further, the TGI in assay [1] was 8.68 µM; in [2], 50 µM and > 100 µM; in assay [3], 50 µM and > 100 µM; in assay [5], 50 µM and > 100 µM; in assay [6], 16.7 µM and > 100 µM; in assay [7] it was 50 µM and > 100 µM. Also, the TGI is above 100 µM in assay [8]; 5.82 µM and 0.913 µM in assay [9].

In the case of `CSC1=Nc2ccccc2N=C(c2ccc(Cl)cc2)C1`, the TGI in [1] was 92.6 µM; in assay [2], above 100 µM; in assay [3], above 100 µM; in [5], above 100 µM; in [6] it was above 100 µM; in [7] it was above 100 µM. In addition, the TGI in assay [8] and in assay [9] was above 100 µM throughout.

In the case of `CCCCN(CCCC)C(=O)/C(CC(=O)c1cccc2ccccc12)=N\NC(=O)c1cc2ccccc2cc1O`, the TGI in assay [1] is 35.4 µM; in [3] it was above 100 µM; in assay [4] it was above 100 µM; in assay [5], 70.5 µM; in assay [6] it was 77.3 µM; in [7], 64.8 µM. For the same compound, the TGI in [8] was above 100 µM; in assay [9] it was 69.8 µM.
